Source: ChEMBL document CHEMBL1201862, “PubChem BioAssay data set” (2004)
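How tested: cells in 96-well plates exposed to compound for 48 hours at five concentrations. Here, GI50 denotes the concentration required for 50% inhibition of growth.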 The source made the active and inactive calls. No stated cut-off is given here; in the data, active = GI50 up to about 1.1 µM and inactive = higher.

Key:
Experiment in all cases: growth of human tumour cells (NCI), 48 h
[1] = test system: 786-0
[2] = test system: A498
[3] = test system: A549
[4] = test system: ACHN
[5] = test system: BT-549
[6] = test system: CAKI-1
[7] = test system: CCRF-CEM
[8] = test system: COLO 205
[9] = test system: DU-145
[10] = test system: EKVX
[11] = test system: HCC 2998
[12] = test system: HCT-116
[13] = test system: HCT-15
[14] = test system: HL-60
[15] = test system: HOP-62
[16] = test system: HOP-92
[17] = test system: HT-29
[18] = test system: Hs-578T
[19] = test system: IGROV-1
[20] = test system: K562
[21] = test system: KM12
[22] = test system: LOX IMVI
[23] = test system: M14
[24] = test system: MCF7
[25] = test system: MDA-MB-231
[26] = test system: MDA-MB-435
[27] = test system: MDA-N
[28] = test system: MOLT-4
[29] = test system: Malme-3M
[30] = test system: NCI-H226
[31] = test system: NCI-H23
[32] = test system: NCI-H460
[33] = test system: NCI-H522
[34] = test system: NCI/ADR-RES
[35] = test system: OVCAR-3
[36] = test system: OVCAR-4
[37] = test system: OVCAR-5
[38] = test system: OVCAR-8
[39] = test system: PC-3
[40] = test system: RPMI-8226
[41] = test system: RXF 393
[42] = test system: SF-268
[43] = test system: SF-295
[44] = test system: SF-539
[45] = test system: SK-MEL-28
[46] = test system: SK-MEL-2
[47] = test system: SK-MEL-5
[48] = test system: SK-OV-3
[49] = test system: SN12C
[50] = test system: SNB-19
[51] = test system: SNB-75
[52] = test system: SR
[53] = test system: SW-620
[54] = test system: T47D
[55] = test system: TK-10
[56] = test system: U-251
[57] = test system: UACC-257
[58] = test system: UACC-62
[59] = test system: UO-31

`CC1(C)CC(O)C2=C(O1)C(=O)c1ncccc1C2=O` (centres undefined) was tested, and the GI50 [1] was 1.87 µM (inactive), the GI50 [2] was 5.3 µM (inactive) and the GI50 [3] was 9.51 µM (inactive). For the same compound, the GI50 [4] was 2.93 µM (inactive), the GI50 [5] was 1.75 µM (inactive) and the GI50 [6] was 2.24 µM (inactive). For the same compound, the GI50 [7] was 2.19 µM (inactive), the GI50 [8] was 2.32 µM (inactive) and the GI50 [9] was 5.07 µM (inactive). For the same compound, the GI50 [10] was 2.54 µM (inactive), the GI50 [11] was 5.41 µM (inactive) and the GI50 [12] was 2.28 µM (inactive). For the same compound, the GI50 [13] was 4.02 µM, the GI50 [14] was 1.7 µM (inactive) and the GI50 [15] was 1.85 µM (inactive). For the same compound, the GI50 [16] was 2.28 µM (inactive), the GI50 [17] was 3.05 µM (inactive) and the GI50 [18] was 2.7 µM (inactive). For the same compound, the GI50 [19] was 2.17 µM (inactive), the GI50 [20] was 2.11 µM (inactive) and the GI50 [21] was 3.48 µM (inactive). The GI50 [22] was 1.58 µM (inactive), the GI50 [23] was 1.96 µM (inactive) and the GI50 [24] was 2.12 µM (inactive). The GI50 [25] was 2.29 µM (inactive), the GI50 [26] was 1.71 µM (inactive) and the GI50 [27] was 1.75 µM (inactive). For the same compound, the GI50 [28] was 1.93 µM (inactive), the GI50 [29] was 1.49 µM (inactive) and the GI50 [30] was 1.87 µM (inactive). For the same compound, the GI50 [31] was 1.64 µM (inactive), the GI50 [32] was 2.52 µM (inactive) and the GI50 [33] was 1.29 µM (inactive). The GI50 [34] was 1.5 µM (inactive), the GI50 [35] was 2.35 µM (inactive) and the GI50 [36] was 1.73 µM (inactive). The GI50 [37] was 1.89 µM (inactive), the GI50 [38] was 2.6 µM (inactive) and the GI50 [39] was 2.9 µM (inactive). For the same compound, the GI50 [40] was 2.48 µM (inactive), the GI50 [41] was 3.4 µM (inactive) and the GI50 [42] was 2 µM (inactive). The GI50 [43] was 1.83 µM (inactive), the GI50 [44] was 1.84 µM (inactive) and the GI50 [45] was 1.69 µM (inactive). For the same compound, the GI50 [46] was 2.58 µM (inactive), the GI50 [47] was 1.66 µM (inactive) and the GI50 [48] was 13.7 µM (inactive). The GI50 [49] was 1.94 µM (inactive), the GI50 [50] was 4.65 µM (inactive) and the GI50 [51] was 530 nM (active). For the same compound, the GI50 [52] was 2.34 µM (inactive), the GI50 [53] was 1.87 µM (inactive) and the GI50 [54] was 2.26 µM (inactive). The GI50 [55] was 6.46 µM (inactive), the GI50 [56] was 1.75 µM (inactive) and the GI50 [57] was 1.71 µM (inactive). For the same compound, the GI50 [58] was 1.72 µM (inactive) and the GI50 [59] was 1.85 µM (inactive).
